Experimental data: patent US10201556B2, “Combination for use in treating diseases or conditions associated with melanoma, or treating diseases or conditions associated with activated B-raf pathway” (InteRNA Technologies B.V., priority 2012, dated 2019)
Entries after “also recorded” stand apart in the source; their conditions may differ.

Tests used:
RRM2 = test: Western blotting of RRM2 protein levels; format: cell-based, human
Experimental: Transfection was performed as described in Example 4 in 6-well format. Proteins were isolated using RIPA buffer (50 mM Tris pH 8.0, 150 mM NaCL, 1% NP-40, 0.5% Sodium deoxycholate, 0.1% SDS), supplemented with Protease Inhibitor Cocktail (Sigma) and Halt™ Phosphatase Inhibitor Cocktail (Pierce/Thermo Scientific). Fifteen μg protein was loaded on a 12% Mini-PROTEAN® TGX™ Precast Gel (Bio-Rad), and proteins were transferred to Immun-Blot PVDF Membrane (Bio-Rad). Membranes were blocked in 5% milk or 5% BSA in TBS-T, and incubated O/N at 4° C. with primary antibodies against α-tubulin (1:5000), BRAF, pERK1/2, CDK4, RRM2 (all 1:1000), BCL-2 (1:500) (Santa Cruz), total-ERK1/2 (1:2000), BIRC5, AURKB (1:1000) (Cell Signaling), ERK1 (1:2000) (GeneTex). After incubation with appropriate secondary antibodies and western blot chemiluminescence substrate ECL (Pierce/Thermo Scientific), membranes were exposed to CL-XPosure Film (Pierce/Thermo Scientific).

A2058 melanoma cell line = test: Anti-proliferative effect of small molecules, MTS assay; format: cell-based; conditions: Homo sapiens, A2058, intrinsic resistance, 72 hours
Experimental: (§1) The anti-proliferative effect of small molecules in melanoma cell lines was determined with V600E BRAF inhibitor, vemurafenib (PLX-4032, 51267, Selleck) and MEK inhibitor, selumetinib (AZD-6244, S1008, Selleck). For each cell line optimal growth conditions were determined prior to the experiment. Cells were plated in a 96-well plate at 3000 cells per well (100 uL) and were grown at 37 C, 5% CO2. Small molecule mix (50 uL per well) was made for each concentration in medium. Cells were treated in triplicate 24 hours after plating. After 72 hours medium was replaced and viability was measured with the MTS assay (Promega) according to manufacturer's instructions. Cell viability inhibition is normalized against loading control (0.1% DMSO) and GraphPad Prism was used to fit the curve and calculate GI50 values.

M249 melanoma cell line = test: as above; format: cell-based; conditions: M249, 72 h, M249, vemurafenib sensitive
Experimental: as §1

[1] = system: RPMI-7951 melanoma cell line; test: as above; format: cell-based; conditions: Homo sapiens
Experimental: as §1

phospho-ERK1/2 = test: Western immunoblotting of phospho-ERK1/2 protein levels; format: cell-based, human; conditions: Western blot
Experimental: (§2) A375Hu cells were seeded in 6-well plates and transfected with different concentrations (10, 50 and 100 nM) of synthetic hsa-miR-129-5p or BRAF siRNA (100 nM) using RNAiMAX (7.5 μl/well). As control a scrambled miRNA and a non-targeting siRNA pool were included. Proteins were harvested 72 hrs post transfection using RIPA buffer supplemented with HALT™ Phosphatase Inhibitor (Thermo Scientific) and Protease Inhibitor Cocktail (Sigma). Fifteen μg protein was loaded on 7.5% TGX acrylamide gels (Bio-Rad) and subsequently transferred to PVDF membranes. The membranes were blocked in 5% milk in TBS-T and incubated O/N at 4° C. with primary antibodies to bRAF, phosphoERK1/2, CDK6, and tubulin (Santa Cruz). After incubation with secondary goat-anti-mouse antibodies (Santa Cruz), membranes were developed using ECL (Pierce).
as §2, with “(1, 10” for “(10, 50”, “hsa-miR-3157” for “hsa-miR-129-5p”, “bRAF, total ERK1/2,” for “bRAF,”, “CDK4, BCL2” for “CDK6,”
as §2, with “concentrations” for “concentrations (10, 50 and 100 nM)”, “vemurafenib (PLX-4032, 0.01, 0.1, 1 uM).” for “synthetic hsa-miR-129-5p or BRAF siRNA (100 nM) using RNAiMAX (7.5 μl/well). As control a scrambled miRNA and a non-targeting siRNA pool were included.”, “bRAF, total ERK1/2,” for “bRAF,”, “CDK4, BCL2” for “CDK6,”
A2058 cells were seeded in 6-well plates and transfected with different concentrations (1, 10 and 100 nM) of synthetic hsa-miR-3157-5p or BRAF siRNA using X-TremeGene (Roche, 15 μl/well). As control a scrambled miRNA was included. Proteins were harvested 72 hrs post transfection using RIPA buffer supplemented with HALT™ Phosphatase Inhibitor (Thermo Scientific) and Protease Inhibitor Cocktail (Sigma). Fifteen μg protein was loaded on 10% TGX acrylamide gels (Bio-Rad) and subsequently transferred to PVDF membranes. The membranes were blocked in 5% milk in TBS-T and incubated O/N at 4° C. with primary antibodies to bRAF, total ERK1/2, phosphoERK1/2, BCL2, CDK4 and tubulin (Santa Cruz). After incubation with secondary goat-anti-mouse antibodies (Santa Cruz), membranes were developed using ECL (Pierce).
Transfection was performed as described in Example 4 in 6-well format. Proteins were isolated using RIPA buffer (50 mM Tris pH 8.0, 150 mM NaCL, 1% NP-40, 0.5% Sodium deoxycholate, 0.1% SDS), supplemented with Protease Inhibitor Cocktail (Sigma) and Halt™ Phosphatase Inhibitor Cocktail (Pierce/Thermo Scientific). […]

Compound | RRM2 protein levels (RRM2; vemurafenib-resistant A2058, M249-AR4 and M376, 1 μM, 24 hrs (FIG. 14b)) | RRM2 protein levels (RRM2; vemurafenib-sensitive A375 and M249, 1 μM, 24 hrs (FIG. 14b)) | GI50 (A2058 melanoma cell line) | GI50 (M249 melanoma cell line) | cytotoxicity at 3 µM ([1]; RPMI-7951, 3 μM vemurafenib (FIG. 15a), read-out: reduction of cell viability) | GI50 ([1]; RPMI-7951, intrinsic resistance, 72 hours, MTS) | phospho-ERK1/2 protein levels (phospho-ERK1/2; A375Hu cells, 72 hrs) | phospho-ERK1/2 protein levels (phospho-ERK1/2; A375Hu cells, 72 hrs, listed as PLX-4032) | RRM2 protein levels (RRM2; A375 cells, increasing concentrations of mimic (FIG. 12c)) | RRM2 protein levels (RRM2; A2058, M249, M249-AR4 and M376, increasing concentrations of mimic (FIG. 14a)) | phospho-ERK1/2 protein levels (phospho-ERK1/2; A2058 cells (vemurafenib resistant), 72 hrs post transfection)
CCCS(=O)(=O)Nc1ccc(F)c(C(=O)c2c[nH]c3ncc(-c4ccc(Cl)cc4)cc23)c1F [Vemurafenib, N-(3-{[5-(4-chlorophenyl)-1H-pyrrolo[2,3-b]pyridin-3-yl]carbonyl}-2,4-difluorophenyl)propane-1-sulfonamide] | protein levels similar to control-treated cells | downregulated | > 10 µM | ~0.3 µM | ~20% | > 10 µM | inhibits | down regulation |  |  | 
hsa-miR-3157-5p: mature miRNA mimic, SEQ ID NO 6 UUCAGCCAGGCUAGUGCAGUCU (listed as RNA, chemistry not given here) |  |  |  |  |  |  | does not down-regulate; also recorded: not affected |  | most pronounced | strongly downregulated | not down-regulated
